Literature values, collected in patent publication US20220000833A1, “COMPOSITIONS AND METHODS FOR TREATING O[…] APNEA” (THERAPIX BIOSCIENCES LTD., priority 2018, published 2022).

Experiments:
[1] = tested on: patients; settings: more than 40 years of clinical research, around 6000 patients, 300-1200 mg a day up to two months
[2] = tested on: humans

Row | Compound | safety / side effects in clinical research [1] | hypothesized lethal dose in humans ([2]; based on rat studies) [mg/kg] | dose at which serious Dronabinol-associated adverse events in humans have been reported ([2]; humans) [mg/kg] | estimated lethal dose in humans ([2]; intravenous) [mg/kg]
1 | CCCCCCCCCCCCCCCC(=O)NCCO [PEA, N-(2-hydroxyethyl)hexadecanamide] | no side effects has ever been reported |  |  | 
2 | CCCCCc1cc(O)c2c(c1)OC(C)(C)[C@@H]1CCC(C)=C[C@@H]21 [Dronabinol, (−)-Trans-Δ9-tetrahydrocannabinol] |  | 30 | 0.4 | 30
